In assay [1] the test system is Escherichia coli ATCC 25922. The assay can be described thus: Minimal Inhibitory Concentration (MIC) broth dilution assay. It is filed as cell-based. To be noted: ATCC25922, 20 h, read-out: MIC Escherichia coli ATCC 25922. How it is done:
(§1) The antibacterial activity of the compounds of the present invention was evaluated against the commonly used quality control strain Escherichia coli ATCC 25922 and the rifampin-resistant mutant strain Klebsiella pneumonia ATCC 43816. Both were originally derived from human clinical samples and are available from ATCC (American Type Culture Collection). The in vitro potency of compounds to inhibit Escherichia coli (ATCC 25922) and Klebsiella pneumonia (ATCC 43816) growth was assessed by the MIC (Minimal Inhibitory Concentration) broth dilution method. Specifically compound dilutions were prepared from 10 mM DMSO stock solutions as follows: i) serial 2-fold dilution in 20 μL DMSO were prepared in a master plate (Greiner, Cat No: 651201), ii) 180 μL sterile distilled water was added to each aliquot and iii) 10 μL diluted compounds were transferred into a new assay plate (Costar, 3599).
(§2) Vials of each test microorganisms were maintained frozen in the vapor phase of a liquid nitrogen freezer. Single-use frozen vials of the two strains Escherichia coli ATCC 25922 (KWIKSTIK, 0335K) and Klebsiella pneumonia ATCC 43816, with predetermined CFU/mL, were taken out from the freezer, thawed at room temperature, and diluted in Cation-Adjusted Mueller Hinton Broth (CAMHB) to achieve a final inoculum of 5×10^5 CFU/mL. 90 μL bacteria containing broth was dispensed to the assay plate containing the pre-dispensed compound dilutions and mixed by pipetting 5 times.
(§3) Then the assay plates were incubated for 20 hours at 35° C. in ambient air. Following incubation, the MIC ([…]), the lowest concentration of drug that inhibits visible growth of the microorganism was read with the help of a magnification mirror and recorded.
A general note: Broth dilution looks for growth in wells or tubes with falling amounts of substance.

Assay [2] relates to Klebsiella pneumonia ATCC 43816. The assay is described as above. The assay is classed as cell-based. To be noted: Klebsiella pneumoniae, ATCC43816, 20 h, read-out: MIC Klebsiella pneumoniae ATCC43816. The protocol: as §1, §2, §3

Values after ≈ are worked out from the molar mass of the structure shown.

Consider `CC1CN(c2cc(C(F)(F)F)cc(Cl)n2)CCN1S(=O)(=O)c1ccc(NC(=O)c2cccc(CNCCCN)c2)cc1` (centres unmarked) [Example 021, 3-[(3-Aminopropylamino)methyl]-N-[4-[4-[6-chloro-4-(trifluoromethyl)-2-pyridyl]-2-methyl-piperazin-1-yl]sulfonylphenyl]benzamide], for which the MIC – broadly, the lowest concentration that inhibits growth of the organism – amounted to 3.9 µg/mL (≈ 6.24 µM) in assay [1] and 7.8 µg/mL (≈ 12.5 µM) in assay [2].
`NCCCNCc1cccc(C(=O)Nc2ccc(S(=O)(=O)N3CCN(c4cc(C(F)(F)F)cc(Cl)n4)C4CCC43)cc2)c1` (centres unmarked) [Example 023, 3-[(3-Aminopropylamino)methyl]-N-[4-[[5-[6-chloro-4-(trifluoromethyl)-2-pyridyl]-2,5-diazabicyclo[4.2.0]octan-2-yl]sulfonyl]phenyl]benzamide]: the MIC in assay [1] and in assay [2] was 4.2 µg/mL (≈ 6.59 µM) each time.
In the case of `NCCCn1cc(C(=O)N2CCc3cc(S(=O)(=O)N4CCN(c5cc(C(F)(F)F)cc(Cl)n5)CC4)ccc32)cn1` [Example 037, [1-(3-Aminopropyl)pyrazol-4-yl]-[5-[4-[6-chloro-4-(trifluoromethyl)-2-pyridyl]piperazin-1-yl]sulfonylindolin-1-yl]methanone], the minimal inhibitory concentration (MIC) in assay [1] was 3.7 µg/mL (≈ 6.19 µM); in assay [2] it was 7.5 µg/mL (≈ 12.5 µM).
For `NC1CCN(CCc2ccc(C(=O)Nc3ccc(S(=O)(=O)N4CCN(c5cc(C(F)(F)F)cc(Cl)n5)CC4)cc3)cc2)C1` (centres unmarked) [Example 069, 4-[2-(3-Aminopyrrolidin-1-yl)ethyl]-N-[4-[4-[6-chloro-4-(trifluoromethyl)-2-pyridyl]piperazin-1-yl]sulfonylphenyl]benzamide] the same measures were 1.2 µg/mL (≈ 1.88 µM) and 2.3 µg/mL (≈ 3.61 µM).
Taken in the same sequence, the figures for `NCCCNCCc1ccc(C(=O)Nc2ccc(S(=O)(=O)N3CCN(c4cc(Cl)c(Cl)cn4)CC3)cc2)cc1` [Example 014, 4-[2-(3-Aminopropylamino)ethyl]-N-[4-[4-(4,5-dichloro-2-pyridyl)piperazin-1-yl]sulfonylphenyl]benzamide] were 15 µg/mL (≈ 25.4 µM) and 30 µg/mL (≈ 50.7 µM).
Taken in the same sequence, the figures for `NCCCNC1CCc2cc(C(=O)Nc3ccc(S(=O)(=O)N4CCN(c5cc(C(F)(F)F)cc(Cl)n5)CC4)cc3)ccc21` (centres unmarked) [Example 064, 1-(3-Aminopropylamino)-N-[4-[4-[6-chloro-4-(trifluoromethyl)-2-pyridyl]piperazin-1-yl]sulfonylphenyl]indane-5-carboxamide] were 2.1 µg/mL (≈ 3.3 µM) and 4.2 µg/mL (≈ 6.59 µM).
On to `CCOc1cc(C(F)(F)F)cc(N2CCN(S(=O)(=O)c3ccc(NC(=O)c4ccc(CNCCCN)cc4)cc3)CC2)n1` [Example 010, 4-[(3-Aminopropylamino)methyl]-N-[4-[4-[6-ethoxy-4-(trifluoromethyl)-2-pyridyl]piperazin-1-yl]sulfonylphenyl]benzamide], for which the MIC in assay [1] is 5.3 µg/mL (≈ 8.54 µM); in assay [2], 11 µg/mL (≈ 17.7 µM).
Taken in the same sequence, the figures for `CN=S(=O)(c1ccc(NC(=O)c2cccc(CNCCCN)c2)cc1)N1CCN(c2cc(C(F)(F)F)cc(Cl)n2)CC1` (stereo not drawn) [Example 026, 3-[(3-aminopropylamino)methyl]-N-[4-[S-[4-[6-chloro-4-(trifluoromethyl)-2-pyridyl]piperazin-1-yl]-N-methyl-sulfonimidoyl]phenyl]benzamide] were 3.9 µg/mL (≈ 6.25 µM) and 7.8 µg/mL (≈ 12.5 µM).
Take `NCCCNC1Cc2ccc(C(=O)Nc3ccc(S(=O)(=O)N4CCN(c5cc(C(F)(F)F)cc(Cl)n5)CC4)cc3)cc2C1` (centres unmarked) [Example 061, 2-(3-Aminopropylamino)-N-[4-[4-[6-chloro-4-(trifluoromethyl)-2-pyridyl]piperazin-1-yl]sulfonylphenyl]indane-5-carboxamide]: the MIC came out at 0.53 µg/mL (≈ 0.832 µM) in assay [1] and 1.1 µg/mL (≈ 1.73 µM) in assay [2].
For `O=C(Nc1ccc(S(=O)(=O)N2CCN(c3cc(C(F)(F)F)cc(Cl)n3)CC2)cc1)c1cccc(N2C[C@H]3CN[C@H]3C2)c1` (stereo in doubt) [Example 052, N-[4-[4-[6-Chloro-4-(trifluoromethyl)-2-pyridyl]piperazin-1-yl]sulfonylphenyl]-3-[3,6-diazabicyclo[3.2.0]heptan-3-yl]benzamide] the same measures were 1.1 µg/mL (≈ 1.77 µM) and 2.3 µg/mL (≈ 3.7 µM).
Taken in the same sequence, the figures for `NCCCNCc1ccc(C(=O)Nc2ccc(S(=O)(=O)N3CCN(c4cc(C(F)(F)F)cc(OC5CC5)n4)CC3)cc2)cc1` [Example 009, 4-[(3-Aminopropylamino)methyl]-N-[4-[4-[6-(cyclopropoxy)-4-(trifluoromethyl)-2-pyridyl]piperazin-1-yl]sulfonylphenyl]benzamide] were 5.4 µg/mL (≈ 8.53 µM) and 11 µg/mL (≈ 17.4 µM).
For `NCCCNCc1ccc(C(=O)Nc2ccc(S(=O)(=O)N3CCN(c4cc(C(F)(F)F)nc(N)n4)CC3)cc2)cc1` [Example 006, 4-[(3-Aminopropylamino)methyl]-N-[4-[4-[2-amino-6-(trifluoromethyl)pyrimidin-4-yl]piperazin-1-yl]sulfonylphenyl]benzamide] the same measures were 3.7 µg/mL (≈ 6.24 µM) and 15 µg/mL (≈ 25.3 µM).
Regarding `COC(=O)c1cc(Cl)nc(N2CCN(S(=O)(=O)c3ccc(NC(=O)c4cccc(CNCCCN)c4)cc3)CC2)c1` [Example 019, Methyl 2-[4-[4-[[3-[(3-aminopropylamino)methyl]benzoyl]amino]phenyl]sulfonylpiperazin-1-yl]-6-chloro-pyridine-4-carboxylate], the MIC turned out to be 2.6 µg/mL (≈ 4.33 µM) in assay [1] and 5.2 µg/mL (≈ 8.65 µM) in assay [2].
For `NCCCNCc1cccc(C(=O)Nc2ccc(S(=O)(=O)N3CCN(c4cc(C(F)(F)F)cc(Cl)n4)CC3)cc2)n1` [Example 059, 6-[(3-Aminopropylamino)methyl]-N-[4-[4-[6-chloro-4-(trifluoromethyl)-2-pyridyl]piperazin-1-yl]sulfonylphenyl]pyridine-2-carboxamide] the same measures were 1.9 µg/mL (≈ 3.1 µM) and 3.8 µg/mL (≈ 6.21 µM).
For `Cn1ncc2c1CN(C(=O)Nc1ccc(S(=O)(=O)N3CCN(c4cc(C(F)(F)F)cc(Cl)n4)CC3)cc1)C2` [Example 033, N-[4-[4-[6-chloro-4-(trifluoromethyl)-2-pyridyl]piperazin-1-yl]sulfonylphenyl]-1-methyl-4,6-dihydropyrrolo[3,4-c]pyrazole-5-carboxamide] the same measures were 3.6 µg/mL (≈ 6.32 µM) and 3.6 µg/mL (≈ 6.32 µM).
For `Cc1cc(C(F)(F)F)nc(N2CCN(S(=O)(=O)c3ccc(NC(=O)c4cnc5c(c4)CNC5)cc3)CC2)n1` [Example 044, N-[4-[4-[4-methyl-6-(trifluoromethyl)pyrimidin-2-yl]piperazin-1-yl]sulfonylphenyl]-6,7-dihydro-5H-pyrrolo[3,4-b]pyridine-3-carboxamide] the same measures were 0.91 µg/mL (≈ 1.66 µM) and 1.8 µg/mL (≈ 3.29 µM).
As for `NCCCNCc1ccc(C(=O)Nc2ccc(S(=O)(=O)N3CCN(c4cc(Br)cc(Cl)n4)CC3)cc2)cc1` [Example 007, 4-[(3-Aminopropylamino)methyl]-N-[4-[4-(4-bromo-6-chloro-2-pyridyl)piperazin-1-yl]sulfonylphenyl]benzamide], the MIC in assay [1] and in assay [2] was 0.97 µg/mL (≈ 1.56 µM) in each case.
As to `CC(F)(F)c1cc(Cl)nc(N2CCN(S(=O)(=O)c3ccc(NC(=O)c4ccc(CCNCCCN)cc4)cc3)CC2)c1` [Example 017, 4-[2-(3-Aminopropylamino)ethyl]-N-[4-[4-[6-chloro-4-(1,1-difluoroethyl)-2-pyridyl]piperazin-1-yl]sulfonylphenyl]benzamide], the MIC in assay [1] and in assay [2] was 0.97 µg/mL (≈ 1.56 µM) in each case.
For the molecule `NCCCNCc1ccc(C(=O)Nc2ccc(S(=O)(=O)N3CCN(c4cc(C(F)(F)F)cc(Cl)n4)CC3)cn2)cc1` [Example 029, 4-[(3-Aminopropylamino)methyl]-N-[5-[4-[6-chloro-4-(trifluoromethyl)-2-pyridyl]piperazin-1-yl]sulfonyl-2-pyridyl]benzamide], the MIC was 1.9 µg/mL (≈ 3.1 µM) in assay [1] and 3.8 µg/mL (≈ 6.21 µM) in assay [2].
With `O=C(c1cnn2c1CNCC2)N1CCc2cc(S(=O)(=O)N3CCN(c4cc(C(F)(F)F)cc(Cl)n4)CC3)ccc21` [Example 038, [5-[4-[6-Chloro-4-(trifluoromethyl)-2-pyridyl]piperazin-1-yl]sulfonylindolin-1-yl]-(4,5,6,7-tetrahydropyrazolo[1,5-a]pyrazin-3-yl)methanone], the MIC in assay [1] was found to be 3.7 µg/mL (≈ 6.21 µM); in assay [2], 7.4 µg/mL (≈ 12.4 µM).
On to `NCCCN1CCCC1c1cccc(C(=O)Nc2ccc(S(=O)(=O)N3CCN(c4cc(C(F)(F)F)cc(Cl)n4)CC3)cc2)c1` (centres unmarked) [Example 066, 3-[1-(3-Aminopropyl)pyrrolidin-2-yl]-N-[4-[4-[6-chloro-4-(trifluoromethyl)-2-pyridyl]piperazin-1-yl]sulfonylphenyl]benzamide], for which the figures for the MIC in assay [1] and in assay [2] were 0.51 µg/mL (≈ 0.783 µM) and 1 µg/mL (≈ 1.54 µM), respectively.
Taken in the same sequence, the figures for `NCCCNCc1ccc(C(=O)Nc2ccc(S(=O)(=O)N3CCN(c4cc(C(F)(F)F)c(Cl)cn4)CC3)cc2)cc1` [Example 003, 4-[(3-Aminopropylamino)methyl]-N-[4-[4-[5-chloro-4-(trifluoromethyl)-2-pyridyl]piperazin-1-yl]sulfonylphenyl]benzamide] were 1.4 µg/mL (≈ 2.29 µM) and 3.8 µg/mL (≈ 6.22 µM).

These data come from patent US20260217672A1, “BENZAMIDE COMPOUNDS FOR TREATMENT OF BACTERIAL INFECTIONS” (Hoffmann-La Roche Inc., priority 2022, published 2026).
